Assay results as given in patent US4792569A, “Anticonvulsant phenethyl sulfamates” (McNeilab, Inc., priority 1987, dated 1988).

System: tonic extensor seizure
Test: maximal electroshock test (MES), block of tonic extensor seizure in mice
Type: in vivo, male albino mice of the Swiss Webster strain
Description: The compounds of formula (I) are useful as anticonvulsant agents. The anticonvulsant activity of the subject compounds was determined using a standard "maximal electroshock test" (MES). In this test, activity is indicated by a block of the tonic extensor seizure caused by application of an electric shock to mice via corneal electrodes, as described by Swinyard et al. in J. Pharmacol. Exptl. Therap. 106, 319 (1952). A more recent description of current anticonvulsant drug screening is given in Swinyard et al. in Epilepsia 19, 409 (1978). Non-fasted male albino mice of the Swiss Webster strain (Royal-Hart Laboratories, New Hampton, N.Y.) weighing 18-24 grams were used in this test. Six to eight groups of ten mice each were used per ED50 determination. The test compounds were administered as aqueous solutions or suspensions prepared with Tween 80 and water. Testing was conducted at 30 minutes following intraperitoneal injection and at 60 minutes following oral administration of the test compound. A group of ten mice injected with saline 10 ml/kg i.p. and tested 30 minutes later served as controls. ED50 's were calculated using a computerized probit analysis procedure.

| SMILES | MES Test % Inhibition (100 mg/kg, 30 min i.p.) [%] | MES Test % Inhibition (200 mg/kg, 60 min p.o.) [%] | MES Test % Inhibition (500 mg/kg i.p. in 30 min) [%] |
| --- | --- | --- | --- |
| NS(=O)(=O)OCCc1ccccc1 [Example 1b, Phenethylsulfamate] | 90 | 100 |  |
| NS(=O)(=O)OCCc1cccc(C(F)(F)F)c1 [Example 2, 3-(Trifluoromethyl)phenethylsulfamate] | 70 | 100 |  |
| COc1ccc(CCOS(N)(=O)=O)cc1OC [Example 3, 3,4-Dimethoxyphenethyl sulfamate] |  |  | 30 |
| Cc1ccccc1CCOS(N)(=O)=O [Example 5, 2-Methylphenethyl sulfamate] | 90 | 70 |  |
| NS(=O)(=O)OCCc1cccc([N+](=O)[O-])c1 [Example 6, 3-Nitrophenethylsulfamate] | 80 | 40 |  |
